# Test results: patent publication US20080200538A1, “Inhibition of Monocyte Survival, Differentiation, or Proliferation” (The Ohio State University Research Foundation, priority 2005, published 2008)
# Experiments:
# p38 = experiment: Western blot of p38 phosphorylation in THP-1 cells; format: cell-based, human; settings: THP-1, 10 or 25 μM SB203580 1 h prior to 50 μM apigenin for 3 h
# Method: A. THP-1 cells were treated with 50 μM apigenin for various lengths of time. Lysates were separated by SDS-PAGE, transferred and analyzed by immunoblots with anti-phospho-p38 (pp 38) and anti-total-p38 antibodies. B. THP-1 cells were treated for 6 hr with 50 μM apigenin alone (lane 2), treated with the apigenin diluent (lane 1), pretreatred with 10 or 25 μM SB203580 for 1 hr prior to the addition of apigenin (lanes 3 and 4) or with the SB203580 inhibitor alone (lanes 5 and 6).
# Extracts from 3×10^6 cells were prepared by incubating cells for 30 min on ice in lysis buffer (50 mM Tris, 10 mM EDTA 0.5% NP-40, 10 mM Na-glycerophosphate, 5 mM Na-pyrophosphate, 50 mM NaF, 1 mM orthovanadate, 1 mM DTT, 0.1 mM PMSF, 2 μg/ml of protease inhibitors: chymostatin, pepstatin, antipain, and leupeptin). Cell lysates were centrifuged (14,000×g for 10 min at 4° C.) and the supernatants were stored for at −70° C. for future analysis. Equal amounts of protein were loaded and separated by SDS-PAGE, transferred onto nitrocellulose membranes and probed with antibodies of interest followed by horseradish peroxidase conjugated secondary antibody and visualized by enhanced chemiluminescence (Amersham, Arlington Heights, Ill.). […]
# caspase-3 = experiment: Caspase-3 activity, DEVD-AFC assay, THP-1 lysates; format: cell-based, human
# Method: FIG. 3. Apigenin induces caspase activation in monocytic leukemia. THP-1 (top) and U937 (bottom) leukemia cells were treated for various lengths of time with 50 μM apigenin or DMSO (NT). (A and C) Caspase-9 activity was determined by the LEHDAFC assay. (B and D) Caspase-3 activity was determined by the DEVD-AFC assay. Data represents means ±SEM (N=3).
# (§1) FIG. 4. Caspase-3 activation is required for apigenin-induced apoptosis. THP-1 cells were treated for 12 h with 50 μM apigenin alone or pretreated with 20 μM DEVD-FMK for 1 h prior to the addition of apigenin. (A) Cells were then stained with calcein AM and 24 PI and the percentage of apoptotic cells was determined. (B) Lysates from cells treated as described above were used to determined caspase-3 activity by the DEVD-AFC assay. All data represents means ±SEM (N=5).
# (§2) FIG. 7. Apigenin induced p38 activation is not required for apoptosis. A. Cells were pretreated for 1 h prior to addition of 50 μM apigenin or DMSO (−) with 10 or 25 μM concentrations of SB203580 or DMSO (−) for 12 h. The percentage of apoptotic cells was determined by calcein AM with PI stained cells. Data represents means ±SEM (N=5 p>0.05). B. Lysates from the same treatments were used to determined caspase-3 activity by the DEVD-AFC assay. Data represents means ±SEM (N=5 p>0.05).
# For measurements of caspase activity, cells were plated at a density of 1.5×10^6 cells/well. After treatment, cells extracts were prepared as previously described (Doseff, A. I., Baker J. H., Bourgeois T. A. and Wewers M. D. (2003) Interleukin-4-induced zpoptosis entails caspase activation and suppression of extracellular signal-regulated kinase phosphorylation. Am. J. Resp. Cell Mol. Biol., 29, 367-374). […] Levels of released AFC were measured using Cytofluor 400 fluorimeter (Filters: excitation 400 nm, emission 508 nm; Perspective Co., Framingham, Mass.).
# THP-1 cells [1] = experiment: Cell survival and apoptosis by calcein AM/PI staining; format: cell-based, human
# Method: FIG. 2. Apigenin induces cell death in monocytic leukemia cells. THP-1 and U937 leukemia cells were treated for various lengths of time with 50 μM apigenin or left untreated (NT) and stained with calcein AM and PI as described in Material and Methods to evaluate the percentage of cell survival. (A) THP cells after 12 h cells treated with 50 μM apigenin or with DMSO (NT). (B) The percentage of cell survival represented by means ±SEM (N=3).
# as §1, §2
# To investigate apoptosis, cells were plated at a density of 1×10^6 cells/well. After treatment, cells were collected and washed in PBS. Cells were then incubated in RPMI (no phenol red) and 1 μg/ml calcein AM for 30 min and 5×10−2 ng/ml propidium iodide (PI) for 5 min. Cells were washed twice and resuspended in PBS. Cells were viewed using a fluorescent microscope (Olympus, Melville, N.Y.). At least 200 cells were counted. Cells calcein AM positive (green) in the absence of PI (red) were considered alive while cells undergoing apoptosis are green with red. Number of green cells or green with red cells was counted over total number of cells (green alone and green with red) to express cell survival or apoptotic cell percentage respectively.
# Akt = experiment: Western blot of Akt phosphorylation and total Akt in THP-1 cells; format: cell-based, human; settings: THP-1, 10 or 25 μM SB203580 1 h prior to 50 μM apigenin for 3 h
# Method: FIG. 5. Apigenin affects Akt phosphorylation. THP-1 cells were treated with 50 μM apigenin for different lengths of time. Lysates were separated by SDS-PAGE, transferred and immunoblotted with anti-phospho-Akt (pSer 473), anti-phospho-Akt (pThr 308), total Akt, and â-tubulin antibodies.
# FIG. 6. Apigenin induces the activation of p38 and inactivation of Akt. A. THP-1 cells were treated with 50 μM apigenin for various lengths of time. Lysates were separated by SDS-PAGE, transferred and analyzed by immunoblots with anti-phospho-p38 (pp 38) and anti-total-p38 antibodies. B. […] Lysates were analyzed by immunoblotting with anti-phospho-Akt (pSer 473), anti-phospho-p38 (p-p38), and anti-total-p38 antibodies.
# Extracts from 3×10^6 cells were prepared by incubating cells for 30 min on ice in lysis buffer (50 mM Tris, 10 mM EDTA 0.5% NP-40, 10 mM Na-glycerophosphate, 5 mM Na-pyrophosphate, 50 mM NaF, 1 mM orthovanadate, 1 mM DTT, 0.1 mM PMSF, 2 μg/ml of protease inhibitors: chymostatin, pepstatin, antipain, and leupeptin). Cell lysates were centrifuged (14,000×g for 10 min at 4° C.) and the supernatants were stored for at −70° C. for future analysis. Equal amounts of protein were loaded and separated by SDS-PAGE, transferred onto nitrocellulose membranes and probed with antibodies of interest followed by horseradish peroxidase conjugated secondary antibody and visualized by enhanced chemiluminescence (Amersham, Arlington Heights, Ill.). Phospho-Ser473-Akt, phospho-Thr308-Alt, total AKT, phospho-p38 and total p38 antibodies were obtained from Cell Signaling (Boston, Mass.). â-tubulin antibody was obtained from Upstate (Charlottesville, Va.).
# A549 cells = experiment: Cell viability assay (CellTiter 96 / MTT, A490); format: cell-based; settings: A549, up to 500 μM naringenin, 24 h; reduced by
# Method: (§3) FIG. 1. Effect of apigenin and naringenin in cell survival of cancer cells. (A) Structure of the flavonoids apigenin and naringenin. (B) THP-1, U937, A549, and MCF-7 cells were treated with various doses of apigenin or naringenin for 24 h. After the treatment, the percentage of cell proliferation was calculated as the ratio of treated cells to control cells as determined by the MTT method (A490). Data represents means ±SEM (N=9). […] Cells were plated at a density of 2×10^4 cells/well into 96-well plates and treated with flavonoids at indicated concentrations for 24 h. Absorbance at 490 nm (A490) was recorded using an ELISA plate reader (Bio-Tek ELx800, KC Junior, Winooski, Vt.).
# MCF-7 cells = experiment: Cell viability assay (CellTiter 96 / MTT, A490); format: cell-based; settings: MCF-7, up to 500 μM naringenin, 24 h; reduced by
# Method: as §3
# THP-1 cells [2] = experiment: Cell viability assay (CellTiter 96 / MTT, A490); format: cell-based, human; settings: THP-1, 500 μM naringenin, 24 h; reduced to
# Method: as §3
# U937 cells = experiment: Cell viability assay (CellTiter 96 / MTT, A490); format: cell-based, human; settings: U937, 500 μM naringenin, 24 h; reduced to
# Method: as §3
# THP-1 cells [3] = test system: THP-1 cells
# [4] = THP-1, 20 μM DEVD-FMK 1 h prior to 50 μM apigenin for 12 h
molecule,measurement,setting,value
"C[S+]([O-])c1ccc(-c2nc(-c3ccncc3)c(-c3ccc(F)cc3)[nH]2)cc1 (centres unmarked) [SB203580, reference compound]",apigenin-induced p38 phosphorylation,p38,significantly reduced
same,caspase-3 activity,"caspase-3; THP-1, SB203580 and 50 μM apigenin vs apigenin alone, P>0.05",similar
same,number of apoptotic cells induced by apigenin,"THP-1 cells [1]; THP-1, SB203580 (10 or 25 μM) 1 h prior to 50 μM apigenin, 12 h, vs apigenin alone, P>0.05",did not result in a reduction
same,Akt phosphorylation at Ser473,Akt,increase
DEVD-FMK: caspase-3 inhibitor obtained from Enzyme System Products [reference compound],effect on apigenin-induced caspase-3 activity,caspase-3; [4],inhibited the apigenin-induced activation of caspase-3 to the levels observed in untreated cells
same,apoptotic cells,THP-1 cells [1]; [4],< 10%
"O=C1C[C@@H](c2ccc(O)cc2)Oc2cc(O)cc(O)c21 [naringenin, reference compound]",reduction of cell proliferation,A549 cells,20%
same,reduction of cell proliferation,MCF-7 cells,20%
same,cell proliferation (ratio of treated to control cells),THP-1 cells [2],60%
same,cell proliferation (ratio of treated to control cells),U937 cells,60%
same,conversion to another chemical entity in treated cells,THP-1 cells [3],neither one of these two compounds is significantly converted
